The values below come from US20250186435A1, “PHARMACEUTICAL FORMULATIONS AND THEIR PREPARATIONS FOR TREATMENT OF CANCER” (priority 2020, published 2025).

The nature of data set [1]: Moisture and thermal sensitivity of CLX-155. The format is physicochemical. The text has this:
Dry granulation is also referred as pre-compression or double compression and is an agglomeration process designed to improve the flow and compression characteristics of powders that would otherwise have poor flow &/or compressibility. The process involves compaction of powder particles into larger pieces or compacts which are subsequently broken down into granules that can be further processed into dosage forms. Dry granulation is suitable for the compound which is sensitive to moisture and temperature.

Data set [2] in a line: Solubility of API CLX-155 in organic solvents. Format: physicochemical.

As to `CCCCCCCC(=O)Nc1nc(=O)n([C@@H]2O[C@H](C)[C@@H](OC(C)=O)[C@H]2OC(C)=O)cc1F` [CLX-155, (2R, 3R, 4R, 5R)-2-(5-Fluoro-4-octanamido 2-oxopyrimidine-1(2H)-yl)-5-methyl-tetrahydrofuran-3,4-diyl-diacetate], in data set [1], the Stability towards moisture result is on record as “moisture sensitive” and the Thermal stability result was “thermolabile”. Moreover, the Solubility entry in data set [2] (in Acetonitrile) is “Slightly Soluble”. Further, in data set [2] (in Methanol), the Solubility result is given as “Freely soluble”.
